From patent US20100298141A1, “SUBSTITUTED PYRIDINE N-OXIDE HERBICIDES” (E. I. DU PONT DE NEMOURS AND COMPANY, priority 2007, published 2010)

What was measured:
Test in all cases: Test F preemergence test
quackgrass = assay type: in vivo, Elytrigia repens; conditions: scale 0 to 100
In short: (§1)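 Compound in a non-phytotoxic solvent blend with surfactant is applied preemergence to planted seeds or postemergence to sugarcane plants. Plants and controls stay in the greenhouse 14 to 21 days before visual comparison.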

prickly sida = assay type: in vivo, Sida spinosa; conditions: scale 0 to 100
In short: as §1

naked crabgrass = assay type: in vivo, Digitaria nuda; conditions: scale 0 to 100
In short: as §1

purple nutsedge = assay type: in vivo, Cyperus rotundus; conditions: scale 0 to 100
In short: as §1

Canada horseweed = assay type: in vivo, Conyza canadensis; conditions: scale 0 to 100
Text: Seeds of plant species selected from bermudagrass (Cynodon dactylon), Surinam grass (Brachiaria decumbens), large crabgrass (Digitaria sanguinalis), green foxtail (Setaria viridis), goosegrass (Eleusine indica), johnsongrass (Sorghum halepense), kochia (Kochia scoparia), pitted morningglory (Ipomoea lacunosa), purple nutsedge (Cyperus rotundus), common ragweed (Ambrosia elation), mustard (Brassica nigra), guineagrass (Panicum maximum), […] (Paspalum dilatatum), barnyardgrass (Echinochloa crus-galli), southern sandbur (Cenchrus echinatus), common sowthistle (Sonchus oleraceous), prickly […] spinosa), Italian ryegrass (Lolium multiflorum), common purslane (Portulaca oleracea), broadleaf signalgrass (Brachiaria platyphylla), common groundsel (Senecio vulgaris), common chickweed (Stellaria media), Virginia dayflower (Commelina virginica), annual bluegrass (Poa annua), naked crabgrass (Digitaria nuda), […] cochinchinensis), quackgrass (Elytrigia repens), Canada horseweed (Conyza canadensis), field bindweed (Convolvulus arvensis), […] (Bidens bipinnata), common mallow (Malva sylvestris), Russian thistle (Salsola kali), and sugarcane (Saccharum officinarum) were planted and treated preemergence with test chemicals formulated in a non-phytotoxic solvent mixture which included a surfactant. At a different time, sugarcane was treated with postemergence applications of some of the test chemicals formulated in the same manner. Plants were approximately 3- to 4-leaf stage for the postemergence treatments. Treated plants and controls were maintained in a greenhouse for 14 to 21 days, after which time all species were compared to controls and visually evaluated. […] A dash (-) response means no test result.

dallisgrass = assay type: in vivo, Paspalum dilatatum; conditions: scale 0 to 100
In short: as §1

common groundsel = assay type: in vivo, Senecio vulgaris; conditions: scale 0 to 100
In short: as §1

guineagrass = assay type: in vivo, Panicum maximum; conditions: scale 0 to 100
In short: as §1

mustard = assay type: in vivo, Brassica nigra; conditions: scale 0 to 100
In short: as §1

common mallow = assay type: in vivo, Malva sylvestris; conditions: scale 0 to 100
In short: as §1

kochia = assay type: in vivo, Kochia scoparia; conditions: scale 0 to 100
In short: as §1

Virginia dayflower = assay type: in vivo, Commelina virginica; conditions: scale 0 to 100
In short: as §1

bermudagrass = assay type: in vivo, Cynodon dactylon; conditions: scale 0 to 100
In short: as §1

barnyardgrass = assay type: in vivo, Echinochloa crus-galli
In short: as §1

pitted morningglory = assay type: in vivo, Ipomoea lacunosa; conditions: scale 0 to 100
In short: as §1

common purslane = assay type: in vivo, Portulaca oleracea; conditions: scale 0 to 100
In short: as §1

annual bluegrass = assay type: in vivo, Poa annua; conditions: scale 0 to 100
In short: as §1

broadleaf signalgrass = assay type: in vivo, Brachiaria platyphylla; conditions: scale 0 to 100
In short: as §1

In the case of CCn1nc(C(F)(F)F)c(CS(=O)(=O)c2cccc[n+]2[O-])c1OCC(F)(F)F [Compound 63], the “Plant response rating, Quackgrass” value (quackgrass; 16 g ai/ha, preemergence) is reported as 0, the “Quackgrass plant response rating” value (quackgrass; 62 g ai/ha, Preemergence) is reported as 95 and the “Quackgrass plant response rating” value (quackgrass; 125 g ai/ha, preemergence) is reported as 100. The “Plant response rating, Quackgrass” value (quackgrass; Preemergence, 31 g ai/ha) was 65, the “Plant response rating, Prickly Sida” value (prickly sida; 16 g ai/ha, preemergence) was 20 and the “Prickly Sida plant response rating” value (prickly sida; 62 g ai/ha, Preemergence) was 65. For the same compound, the “Prickly Sida plant response rating” value (prickly sida; 125 g ai/ha, preemergence) was 90, the “Plant response rating, Prickly Sida” value (prickly sida; Preemergence, 31 g ai/ha) was 65 and the “Plant response rating, Crabgrass, Naked” value (naked crabgrass; 16 g ai/ha, preemergence) was 70. For the same compound, the “Crabgrass, Naked plant response rating” value (naked crabgrass; 62 g ai/ha, Preemergence) was 100, the “Crabgrass, Naked plant response rating” value (naked crabgrass; 125 g ai/ha, preemergence) was 100 and the “Plant response rating, Crabgrass, Naked” value (naked crabgrass; Preemergence, 31 g ai/ha) was 70. For the same compound, the “Plant response rating, Purple Nutsedge” value (purple nutsedge; 16 g ai/ha, preemergence) was 0, the “Purple Nutsedge plant response rating” value (purple nutsedge; 62 g ai/ha, Preemergence) was 65 and the “Purple Nutsedge plant response rating” value (purple nutsedge; 125 g ai/ha, preemergence) was 75. For the same compound, the “Plant response rating, Purple Nutsedge” value (purple nutsedge; Preemergence, 31 g ai/ha) was 15, the “Plant response rating, Horseweed” value (Canada horseweed; 16 g ai/ha, preemergence) was 0 and the “Horseweed plant response rating” value (Canada horseweed; 62 g ai/ha, Preemergence) was 98. For the same compound, the “Horseweed plant response rating” value (Canada horseweed; 125 g ai/ha, preemergence) was 100, the “Plant response rating, Horseweed” value (Canada horseweed; Preemergence, 31 g ai/ha) was 98 and the “Plant response rating, Dallisgrass” value (dallisgrass; 16 g ai/ha, preemergence) was 15. The “Dallisgrass plant response rating” value (dallisgrass; 62 g ai/ha, Preemergence) was 80, the “Dallisgrass plant response rating” value (dallisgrass; 125 g ai/ha, preemergence) was 100 and the “Plant response rating, Dallisgrass” value (dallisgrass; Preemergence, 31 g ai/ha) was 50. The “Plant response rating, Groundsel” value (common groundsel; 16 g ai/ha, preemergence) was 0, the “Groundsel plant response rating” value (common groundsel; 62 g ai/ha, Preemergence) was 0 and the “Groundsel plant response rating” value (common groundsel; 125 g ai/ha, preemergence) was 0. For the same compound, the “Plant response rating, Groundsel” value (common groundsel; Preemergence, 31 g ai/ha) was 0, the “Plant response rating, Guineagrass” value (guineagrass; 16 g ai/ha, preemergence) was 70 and the “Guineagrass plant response rating” value (guineagrass; 62 g ai/ha, Preemergence) was 100. The “Guineagrass plant response rating” value (guineagrass; 125 g ai/ha, preemergence) was 100, the “Plant response rating, Guineagrass” value (guineagrass; Preemergence, 31 g ai/ha) was 95 and the “Plant response rating, Black Mustard” value (mustard; 16 g ai/ha, preemergence) was 0. For the same compound, the “Black Mustard plant response rating” value (mustard; 62 g ai/ha, Preemergence) was 50, the “Black Mustard plant response rating” value (mustard; 125 g ai/ha, preemergence) was 90 and the “Plant response rating, Black Mustard” value (mustard; Preemergence, 31 g ai/ha) was 50. The “Plant response rating, Mallow” value (common mallow; 16 g ai/ha, preemergence) was 0, the “Mallow plant response rating” value (common mallow; 125 g ai/ha, preemergence) was 100 and the “Plant response rating, Mallow” value (common mallow; Preemergence, 31 g ai/ha) was 98. For the same compound, the “Plant response rating, Kochia” value (kochia; 16 g ai/ha, preemergence) was 0, the “Kochia plant response rating” value (kochia; 62 g ai/ha, Preemergence) was 0 and the “Kochia plant response rating” value (kochia; 125 g ai/ha, preemergence) was 100. The “Plant response rating, Kochia” value (kochia; Preemergence, 31 g ai/ha) was 0, the “Plant response rating, Dayflower” value (Virginia dayflower; 16 g ai/ha, preemergence) was 0 and the “Dayflower plant response rating” value (Virginia dayflower; 62 g ai/ha, Preemergence) was 100. The “Dayflower plant response rating” value (Virginia dayflower; 125 g ai/ha, preemergence) was 100, the “Plant response rating, Dayflower” value (Virginia dayflower; Preemergence, 31 g ai/ha) was 100 and the “Plant response rating, Bermudagrass” value (bermudagrass; 16 g ai/ha, preemergence) was 50. For the same compound, the “Bermudagrass plant response rating” value (bermudagrass; 62 g ai/ha, Preemergence) was 95, the “Bermudagrass plant response rating” value (bermudagrass; 125 g ai/ha, preemergence) was 100 and the “Plant response rating, Bermudagrass” value (bermudagrass; Preemergence, 31 g ai/ha) was 80. The “Plant response rating, Barnyardgrass” value (barnyardgrass; 16 g ai/ha, preemergence, scale 0 to 100 (0 no effect, 100 complete control)) was 80, the “Barnyardgrass plant response rating” value (barnyardgrass; 62 g ai/ha, Preemergence, scale 0 to 100) was 95 and the “Barnyardgrass plant response rating” value (barnyardgrass; 125 g ai/ha, preemergence, scale 0 to 100) was 100. The “Plant response rating, Barnyardgrass” value (barnyardgrass; Preemergence, 31 g ai/ha, scale 0 to 100) was 80, the “Plant response rating, Morningglory” value (pitted morningglory; 16 g ai/ha, preemergence) was 0 and the “Morningglory plant response rating” value (pitted morningglory; 62 g ai/ha, Preemergence) was 0. For the same compound, the “Morningglory plant response rating” value (pitted morningglory; 125 g ai/ha, preemergence) was 35, the “Plant response rating, Morningglory” value (pitted morningglory; Preemergence, 31 g ai/ha) was 0 and the “Plant response rating, Purslane” value (common purslane; 16 g ai/ha, preemergence) was 0. The “Purslane plant response rating” value (common purslane; 62 g ai/ha, Preemergence) was 0, the “Purslane plant response rating” value (common purslane; 125 g ai/ha, preemergence) was 20 and the “Plant response rating, Purslane” value (common purslane; Preemergence, 31 g ai/ha) was 0. For the same compound, the “Plant response rating, Bluegrass” value (annual bluegrass; 16 g ai/ha, preemergence) was 25, the “Bluegrass plant response rating” value (annual bluegrass; 62 g ai/ha, Preemergence) was 90 and the “Bluegrass plant response rating” value (annual bluegrass; 125 g ai/ha, preemergence) was 100. The “Plant response rating, Bluegrass” value (annual bluegrass; Preemergence, 31 g ai/ha) was 65, the “Plant response rating, Signalgrass” value (broadleaf signalgrass; 16 g ai/ha, preemergence) was 15 and the “Signalgrass plant response rating” value (broadleaf signalgrass; 125 g ai/ha, preemergence) was 100. For the same compound, the “Plant response rating, Signalgrass” value (broadleaf signalgrass; Preemergence, 62 g ai/ha) was 100 and the “Plant response rating, Signalgrass” value (broadleaf signalgrass; Preemergence, 31 g ai/ha) was 40.
